Reference: patent US20250195521A1 (Revolution Medicines, Inc., priority 2020, published 2025)

Columns and labels:
[1] = test system: NCI-H358 cells (K-Ras G12C); experiment: CellTiter-Glo cell viability, NCI-H358; type: cell-based, human; details: Homo sapiens, NCI-H358, 120 h, K-Ras G12C, 5-day treatment; read-out: H358 Cell Viability IC50
Description: Note—The following protocol describes a procedure for monitoring cell viability of K-Ras mutant cancer cell lines in response to a compound of the invention. Other RAS isoforms may be employed, though the number of cells to be seeded will vary based on cell line used.
Test compounds (132.5 nl) were directly dispensed into the assay plates containing cells. […] On day 5, assay plates and their contents were equilibrated to room temperature for approximately 30 minutes. […] Luminescence was measured using the PerkinElmer Enspire. Data were normalized by the following: (Sample signal/Avg. DMSO)*100. The data were fit using a four-parameter logistic fit.

KRAS G12V = KRAS G12V (Homo sapiens (Human), UniProt P01116+P62937, G12V); experiment: Ras-Raf disruption/FRET/MOA assay (BRAF RBD, Cyclophilin A); type: biochemical; details: read-out: KRAS G12V FRET IC50
Outline: (§1)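 His6-K-Ras-GMPPNP (12.5 nM), GST-BRAF RBD (50 nM) and tagless Cyclophilin A (25 μM) were combined in 25 mM HEPES pH 7.3 with 100 mM NaCl, 5 mM MgCl2, 0.1% BSA and 0.002% Tween20, with compound as a 10-point 3-fold series from 30 μM final, then incubated 3 h at 25° C.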

KRAS G13D = KRAS G13D (Homo sapiens (Human), UniProt P01116+P62937, G13D); experiment: as above; type: biochemical; details: read-out: KRAS G13D FRET data IC50
Outline: as §1

KRAS G12D = KRAS G12D (Homo sapiens (Human), UniProt P01116+P62937, G12D); experiment: as above; type: biochemical; details: read-out: KRAS G12D FRET IC50
Outline: as §1

KRAS G12S = KRAS G12S (Homo sapiens (Human), UniProt P01116+P62937, G12S); experiment: as above; type: biochemical; details: read-out: KRAS G12S FRET IC50
Outline: as §1

KRAS G13C = KRAS G13C (Homo sapiens (Human), UniProt P01116+P62937, G13C); experiment: as above; type: biochemical; details: read-out: KRAS G13C FRET IC50
Outline: as §1

NRAS G12C = NRAS G12C (Homo sapiens (Human), UniProt P01111+P62937, G12C); experiment: as above; type: biochemical; details: read-out: NRAS G12C FRET data IC50
Outline: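 First, 25 μM Cyclophilin A, 12.5 nM His6-Ras-GMPPNP and 50 nM GST-BRAF RBD are mixed with diluted compound at pH 7.3. Next, 3 h at 25° C. Then 10 nM anti-His Eu-W1024 plus 50 nM anti-GST allophycocyanin for 1.5 h before TR-FRET reading.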

KRAS G12C = KRAS G12C (Homo sapiens (Human), UniProt P01116+P62937, G12C); experiment: as above; type: biochemical; details: read-out: KRAS G12C FRET IC50
Outline: as §1

KRAS WT = KRAS WT (Homo sapiens (Human), UniProt P01116+P62937); experiment: as above; type: biochemical; details: read-out: KRAS WT FRET data IC50
Outline: as §1

[2] = test system: K-Ras G12C (NCI-H358 cells); experiment: Potency assay: pERK in NCI-H358 cells; type: cell-based, human; details: Homo sapiens; NCI-H358 cells, 4 hours; read-out: pERK EC50 (H358 KRAS G12C)
Outline: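 Cells plated the day before were exposed for 4 h at 37° C, 5% CO2 to a 10-point, 3-fold DMSO dilution series (10 mM top stock), in duplicate. Phospho-ERK was read by AlphaLISA SureFire Ultra or by In-Cell Western with DRAQ5 DNA stain, and IC50 came from a 4-parameter sigmoidal fit.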

Sequence of KRAS G12V (P01116 other isoform, or with tags, fused parts or gaps G12V): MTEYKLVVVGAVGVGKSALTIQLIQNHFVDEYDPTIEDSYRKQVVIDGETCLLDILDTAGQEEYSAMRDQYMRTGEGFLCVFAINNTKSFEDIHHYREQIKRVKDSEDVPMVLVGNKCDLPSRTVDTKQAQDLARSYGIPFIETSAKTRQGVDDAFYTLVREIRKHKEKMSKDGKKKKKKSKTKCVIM
Sequence of KRAS G12V (P62937 whole entry): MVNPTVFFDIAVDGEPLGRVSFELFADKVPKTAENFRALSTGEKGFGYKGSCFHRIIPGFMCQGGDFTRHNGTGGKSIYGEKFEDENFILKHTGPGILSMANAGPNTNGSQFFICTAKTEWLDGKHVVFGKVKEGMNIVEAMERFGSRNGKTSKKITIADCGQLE
Sequence of KRAS G13C (P01116 other isoform, or with tags, fused parts or gaps G13C): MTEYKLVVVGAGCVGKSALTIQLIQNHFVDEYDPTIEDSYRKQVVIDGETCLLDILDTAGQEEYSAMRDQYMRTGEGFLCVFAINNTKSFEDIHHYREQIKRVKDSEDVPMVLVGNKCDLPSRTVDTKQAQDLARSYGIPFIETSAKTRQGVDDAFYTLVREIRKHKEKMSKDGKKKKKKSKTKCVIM
Sequence of KRAS G13C (P62937 whole entry): as the sequence (P62937 whole entry) above
Sequence of KRAS G12C (P01116-2 other isoform, or with tags, fused parts or gaps G12C): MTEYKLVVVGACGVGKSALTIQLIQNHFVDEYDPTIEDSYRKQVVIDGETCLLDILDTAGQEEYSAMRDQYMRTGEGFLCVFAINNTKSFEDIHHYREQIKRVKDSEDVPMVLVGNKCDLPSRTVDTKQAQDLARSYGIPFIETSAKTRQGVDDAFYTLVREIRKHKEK
Sequence of KRAS G12C (P62937 whole entry): as the sequence (P62937 whole entry) above
Sequence of KRAS G13D (P01116 other isoform, or with tags, fused parts or gaps G13D): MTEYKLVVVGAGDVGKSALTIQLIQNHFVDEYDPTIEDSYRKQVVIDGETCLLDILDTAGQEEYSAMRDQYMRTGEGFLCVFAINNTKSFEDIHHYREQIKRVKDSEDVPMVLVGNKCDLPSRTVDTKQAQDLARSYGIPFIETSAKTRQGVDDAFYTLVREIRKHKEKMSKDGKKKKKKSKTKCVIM
Sequence of KRAS G13D (P62937 whole entry): as the sequence (P62937 whole entry) above
Sequence of KRAS G12D (P01116 other isoform, or with tags, fused parts or gaps G12D): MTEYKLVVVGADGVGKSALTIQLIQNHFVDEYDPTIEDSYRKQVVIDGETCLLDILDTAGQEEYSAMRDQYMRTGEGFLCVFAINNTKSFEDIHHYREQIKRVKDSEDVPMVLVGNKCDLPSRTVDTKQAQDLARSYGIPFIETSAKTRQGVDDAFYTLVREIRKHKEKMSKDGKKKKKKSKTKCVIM
Sequence of KRAS G12D (P62937 whole entry): as the sequence (P62937 whole entry) above
Sequence of KRAS G12S (P01116 other isoform, or with tags, fused parts or gaps G12S): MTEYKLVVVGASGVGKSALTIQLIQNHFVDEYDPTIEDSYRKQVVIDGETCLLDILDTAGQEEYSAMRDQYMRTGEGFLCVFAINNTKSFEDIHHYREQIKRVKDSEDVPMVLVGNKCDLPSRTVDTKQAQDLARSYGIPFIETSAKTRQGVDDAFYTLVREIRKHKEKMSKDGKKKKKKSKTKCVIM
Sequence of KRAS G12S (P62937 whole entry): as the sequence (P62937 whole entry) above
Sequence of NRAS G12C (P01111 whole entry G12C): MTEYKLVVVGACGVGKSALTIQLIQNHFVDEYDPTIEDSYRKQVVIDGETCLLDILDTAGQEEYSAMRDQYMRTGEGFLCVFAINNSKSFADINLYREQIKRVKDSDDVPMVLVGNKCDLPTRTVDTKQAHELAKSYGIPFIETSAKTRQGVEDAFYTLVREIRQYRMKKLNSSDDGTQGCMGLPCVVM
Sequence of NRAS G12C (P62937 whole entry): as the sequence (P62937 whole entry) above
Sequence of KRAS WT (P01116 other isoform, or with tags, fused parts or gaps): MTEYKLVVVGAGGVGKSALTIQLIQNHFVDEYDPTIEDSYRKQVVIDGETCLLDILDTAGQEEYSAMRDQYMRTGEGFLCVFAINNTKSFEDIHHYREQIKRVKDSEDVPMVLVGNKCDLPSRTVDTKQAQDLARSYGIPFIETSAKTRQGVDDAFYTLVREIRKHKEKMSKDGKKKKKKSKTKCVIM
Sequence of KRAS WT (P62937 whole entry): as the sequence (P62937 whole entry) above

| Structure (SMILES) | IC50 [1] | IC50 (KRAS G12V) | IC50 (KRAS G13D) | IC50 (KRAS G12D) | IC50 (KRAS G12S) | IC50 (KRAS G13C) | IC50 (NRAS G12C) | IC50 (KRAS G12C) | IC50 (KRAS WT) | EC50 [2] |
| --- | --- | --- | --- | --- | --- | --- | --- | --- | --- | --- |
| CCn1c(-c2cnccc2COC)c2c3cc(ccc31)-c1cc(O)cc(c1)C[C@H](NC(=O)[C@H](C(C)C)N(C)C(=O)[C@H]1CCN(C(=O)C(C)(C)N)C1)C(=O)N1CCC[C@H](N1)C(=O)OCC(C)(C)C2 [Compound A15] | 1000 to 10000 nM | 100 to 1000 nM | 100 to 1000 nM | 100 to 1000 nM | 100 to 1000 nM | 100 to 1000 nM | 100 to 1000 nM | 10 to 100 nM | 100 to 1000 nM |  |
| CCn1c(-c2cnccc2COC)c2c3cc(ccc31)-c1cc(O)cc(c1)C[C@H](NC(=O)[C@H](C(C)C)N(C)C(=O)N1CCN(C)CC1)C(=O)N1CCC[C@H](N1)C(=O)OCC(C)(C)C2 [Compound A46] | 1000 to 10000 nM | 1000 to 10000 nM | 100 to 1000 nM | 1000 to 10000 nM | 100 to 1000 nM | 100 to 1000 nM | 100 to 1000 nM | 100 to 1000 nM | 100 to 1000 nM |  |
| CCn1c(-c2cnccc2COC)c2c3cc(ccc31)-c1cc(O)cc(c1)C[C@H](NC(=O)[C@H](C(C)C)N(C)C(=O)[C@H]1CCN(C3COC3)C1)C(=O)N1CCC[C@H](N1)C(=O)OCC(C)(C)C2 [Compound A51] | 1000 to 10000 nM | 1000 to 10000 nM | 100 to 1000 nM | 1000 to 10000 nM | 100 to 1000 nM | 100 to 1000 nM | 1000 to 10000 nM | 100 to 1000 nM | 100 to 1000 nM | < 5000 nM |
| CCn1c(-c2cnccc2COC)c2c3cc(ccc31)-c1cc(O)cc(c1)C[C@H](NC(=O)[C@H](C(C)C)N(C)c1ncco1)C(=O)N1CCC[C@H](N1)C(=O)OCC(C)(C)C2 [Compound A52] | 1000 to 10000 nM | 1000 to 10000 nM | 1000 to 10000 nM | > 10000 nM | 1000 to 10000 nM | 1000 to 10000 nM | 1000 to 10000 nM | 100 to 1000 nM | 1000 to 10000 nM |  |

More lines, now with the values ahead:

| IC50 [1] | IC50 (KRAS G12V) | IC50 (KRAS G13D) | IC50 (KRAS G12D) | IC50 (KRAS G12S) | IC50 (KRAS G13C) | IC50 (NRAS G12C) | IC50 (KRAS G12C) | IC50 (KRAS WT) | EC50 [2] | Structure (SMILES) |
| --- | --- | --- | --- | --- | --- | --- | --- | --- | --- | --- |
| 1000 to 10000 nM | 1000 to 10000 nM |  | > 10000 nM | 1000 to 10000 nM | 100 to 1000 nM |  | 1000 to 10000 nM | 1000 to 10000 nM | < 5000 nM | CCn1c(-c2cccnc2COC)c2c3cc(ccc31)-c1cc(O)cc(c1)C[C@H](NC(=O)[C@H](C(C)C)N(C)C(C)=O)C(=O)N1CCC[C@H](N1)C(=O)OCC(C)(C)C2 [Compound A55] |
| > 10000 nM | 1000 to 10000 nM | 1000 to 10000 nM | > 10000 nM | 1000 to 10000 nM | 1000 to 10000 nM | 1000 to 10000 nM | 1000 to 10000 nM | 1000 to 10000 nM | < 5000 nM | CCn1c(-c2cnccc2COC)c2c3cc(ccc31)-c1cc(O)cc(c1)C[C@H](NC(=O)[C@@H](NC(=O)c1ncco1)C(C)C)C(=O)N1CCC[C@H](N1)C(=O)OCC(C)(C)C2 [Compound A56] |
| 1000 to 10000 nM | 1000 to 10000 nM | 1000 to 10000 nM | > 10000 nM | 1000 to 10000 nM | > 10000 nM | 1000 to 10000 nM | 1000 to 10000 nM | 1000 to 10000 nM |  | CCn1c(-c2cnccc2COC)c2c3cc(ccc31)-c1cc(O)cc(c1)C[C@H](NC(=O)[C@@H](OC(=O)N1CCCC1)C(C)C)C(=O)N1CCC[C@H](N1)C(=O)OCC(C)(C)C2 [Compound A59] |
